From patent US20240262842A1, “SMALL MOLECULE INHIBITORS OF KRAS G12C MUTANT” (Merck Sharp & Dohme LLC, priority 2021, published 2024)
Read-outs that look alike come from different tables or passages of the source.

How the values were obtained:
[1] = molecular target: T1, interaction between GMPPNP-bound recombinant K-Ras4B G12C mutant protein and cRAF RAS-binding domain (cRAF-RBD) (Homo sapiens, UniProt P01116, G12C); assay: Inhibitory activity on interaction between KRAS G12C and cRAF (Alpha technology); conditions: Table 2-1
T1 construct: His-tag (N)
T1 sequence (P01116 with tags, fused parts or gaps isoform P01116-2 G12C): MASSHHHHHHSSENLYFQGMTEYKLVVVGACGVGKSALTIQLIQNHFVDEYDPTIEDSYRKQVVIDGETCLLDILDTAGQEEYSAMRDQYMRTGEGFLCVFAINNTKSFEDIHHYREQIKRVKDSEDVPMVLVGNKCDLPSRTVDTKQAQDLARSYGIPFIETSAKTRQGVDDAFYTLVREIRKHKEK
Outline: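 His-tagged K-Ras4B G12C (aa 1-169), GMPPNP-loaded, preincubated with compound 1 h at 25° C in pH 7.5 Tris buffer with MgCl2, TCEP, Tween 20. cRAF-RBD (aa 50-132) and Alpha reagents then added for 1.5 h; Alpha signal normalised to DMSO (0%) and GDP-bound KRAS (100%); IC50 from dose titration.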

MIA PaCa-2 cells = assay: Growth inhibition activity on KRAS-G12C mutant cell line (CellTiter-Glo 3D); type: cell-based, human; conditions: MIA PaCa-2, 3-day culture with compound, Table 3-1
Outline: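 MIA PaCa-2 cells in RPMI1640 with 10% FBS, U-bottom wells, cultured 1 day before compound (0.2% DMSO final), then 3 days at 37 °C, 5% CO2. Viability by CellTiter-Glo 3D luminescence; growth inhibition versus untreated wells gives IC50 (nM).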

[2] = GMPPNP-bound KRAS G12C incubated with compound 25° C. 1 hour, read-out: IC50
[3] = IC50, GMPPNP-bound KRAS G12C incubated with compound 25° C. 1 hour

| Structure (SMILES) | IC50 [1, 2] [nM] | IC50 (MIA PaCa-2 cells; Homo sapiens, MIA PaCa-2, 72 h) [nM] | IC50 [1, 3] [nM] | IC50 (MIA PaCa-2 cells) [nM] |
| --- | --- | --- | --- | --- |
| CN1CCc2cc(C(=O)c3cc(F)c(NC(=O)/C=C/CN[C@@H]4CCCC[C@H]4O)c(F)c3)n3cccc(c23)-c2c(C(F)(F)F)cc3c(ncn3C)c21 [Example 100, (E)-N-(4-(9,12-dimethyl-7-(trifluoromethyl)-9,12,13,14-tetrahydro-imidazo[4″,5″:5′,6′]benzo-[1′,2′:2,3]azocino[4,5,6-hi]indolizine-2-carbonyl)-2,6-difluorophenyl)-4-(((1R,2R)-2-hydroxy-cyclohexyl)amino)but-2-enamide] | 34.5 | 23.4 | – | – |
| CN1CCc2cc(C(=O)c3cc(F)c(NC(=O)/C=C/CN[C@H]4CCCC[C@@H]4O)c(F)c3)n3cccc(c23)-c2c(C(F)(F)F)cc3c(ncn3C)c21 [Example 101] | 27.4 | 26.5 | – | – |
| CCN(CC)[C@H]1CC[C@H](NC/C=C/C(=O)Nc2c(F)cc(C(=O)c3cn4c5c(cccc35)-c3c(C(F)(F)F)cc5c(nc(C)n5C)c3N(C)CC4)cc2F)CC1 [Example 102, (E)-4-(((1r,4r)-4-(diethyl-amino)cyclohexyl)amino)-N-(2,6-difluoro-4-(8,9,11-trimethyl-6-(trifluoro-methyl)-8,11,12,13-tetra-hydroimidazo[4″,5″:5′,6′]-benzo[1′,2′:5,6][1,4]-diazocino[7,8,1-hi]indole-2-carbonyl)phenyl)but-2-enamide] | – | 10.5 | 11.2 | – |
| Cc1cc2c(nc(C)n2C)c2c1-c1cccc3c(C(=O)c4cc(F)c(NC(=O)/C=C/CNC(C)(C)C(=O)N(C)C)c(F)c4)cn(c13)CCN2C [Example 103] | – | 303 | 99.2 | – |
| COc1cc2c(nc(C)n2C)c2c1-c1cccn3c(C(=O)c4cc(F)c(NC(=O)/C=C/CNC5CCCCC5)c(F)c4)cc(c13)CCN2C [Example 104, (E)-4-(cyclohexylamino)-N-(2,6-difluoro-4-(7-methoxy-9,10,12-trimeth-yl-9,12,13,14-tetrahydro-imidazo[4″,5″:5′,6′]benzo-[1′,2′:2,3]azocino[4,5,6-hi]indolizine-2-carbon-yl)phenyl)but-2-enamide] | 41.2 | 15.5 | – | – |
| CC(=O)CC(C)(C)NC/C=C/C(=O)Nc1c(F)cc(C(=O)c2cn3c4c(cccc24)-c2c(C)cc4c(nc(C)n4C)c2N(C)CC3)cc1F [Example 108] | – | 332 | 54.2 | – |
| CN1CCc2cc(C(=O)c3cc(F)c(NC(=O)/C=C/CNC4(CO)CCCC4)c(F)c3)n3cccc(c23)-c2c(C(F)(F)F)cc3c(ncn3C)c21 [Example 109, (E)-N-(4-(9,12-dimethyl-7-(trifluoromethyl)-9,12,13,14-tetrahydro-imidazo[4″,5″:5′,6′]benzo-[1′,2′:2,3]azocino[4,5,6-hi]indolizine-2-carbonyl)-2,6-difluorophenyl)-4-((1-(hydroxymethyl)cyclo-pentyl)amino)but-2-enamide] | 24.8 | 19.5 | – | – |
| CO[C@H]1CC[C@H](NC/C=C/C(=O)Nc2c(F)cc(C(=O)c3cc4c5c(cccn35)-c3c(C)cc5c(ncn5C)c3N(C)CC4)cc2F)CC1 [Example 110, (E)-N-(2,6-difluoro-4-(7,9,12-trimethyl-9,12,13,14-tetrahydro-imidazo[4″,5″:5′,6′]benzo-[1′,2′:2,3]azocino[4,5,6-hi]indolizine-2-carbon-yl)phenyl)-4-(((1r,4r)-4-methoxycyclohexyl)-amino)but-2-enamide] | 35.7 | 55.8 | – | – |
| CCNC/C=C/C(=O)Nc1c(F)cc(C(=O)c2cc3c4c(cccn24)-c2c(C(F)(F)F)cc4c(ncn4C)c2N(C)CC3)cc1F [Example 111, (E)-N-(4-(9,12-dimethyl-7-(trifluoromethyl)-9,12,13,14-tetrahydro-imidazo[4″,5″:5′,6′]benzo-[1′,2′:2,3]azocino[4,5,6-hi]indolizine-2-carbonyl)-2,6-difluorophenyl)-4-(ethylamino)but-2-enamide] | 31.3 | 8.95 | – | – |
| CN1CCc2cc(C(=O)c3cc(F)c(NC(=O)/C=C/CNCC(C)(C)O)c(F)c3)n3cccc(c23)-c2c(C(F)(F)F)cc3c(ncn3C)c21 [Example 112, (E)-N-(4-(9,12-dimethyl-7-(trifluoromethyl)-9,12,13,14-tetrahydro-imidazo[4″,5″:5′,6′]benzo-[1′,2′:2,3]azocino[4,5,6-hi]indolizine-2-carbonyl)-2,6-difluorophenyl)-4-((2-hydroxy-2-methylpropyl)-amino)but-2-enamide] | 29.2 | 10.1 | – | – |
| CN1CCc2cc(C(=O)c3cc(F)c(NC(=O)/C=C/CNCC(C)(C)CO)c(F)c3)n3cccc(c23)-c2c(C(F)(F)F)cc3c(ncn3C)c21 [Example 113, (E)-N-(4-(9,12-dimethyl-7-(trifluoromethyl)-9,12,13,14-tetrahydro-imidazo[4″,5″:5′,6′]benzo-[1′,2′:2,3]azocino[4,5,6-hi]indolizine-2-carbonyl)-2,6-difluorophenyl)-4-((3-hydroxy-2,2-dimethyl-propyl)amino)but-2-enamide] | 29.6 | 10.6 | – | – |
| Cc1cc2c(nc(C)n2C)c2c1-c1cccc3c(C(=O)c4cc(F)c(NC(=O)/C=C/CN5CCC[C@H]5CO)c(F)c4)cn(c13)CCN2C [Example 114, (S,E)-N-(2,6-difluoro-4-(6,8,9,11-tetramethyl-8,11,12,13-tetrahydro-imidazo[4″,5″:5′,6′]benzo-[1′,2′:5,6][1,4]diazocino-[7,8,1-hi]indole-2-carbon-yl)phenyl)-4-(2-(hydroxy-methyl)pyrrolidin-1-yl)-but-2-enamide] | – | 64.5 | 61.1 | – |
| Cc1cc2c(ncn2C)c2c1-c1cccn3c(C(=O)c4cc(F)c(NC(=O)/C=C/CNC5(C)CC5)c(F)c4)cc(c13)CCN2C [Example 115, (E)-N-(2,6-difluoro-4-(7,9,12-trimethyl-9,12,13,14-tetrahydro-imidazo[4″,5″:5′,6′]benzo-[1′,2′:2,3]azocino[4,5,6-hi]indolizine-2-carbon-yl)phenyl)-4-((1-methyl-cyclopropyl)amino)but-2-enamide] | 38.9 | 61.3 | – | – |
| Cc1cc2c(ncn2C)c2c1-c1cccn3c(C(=O)c4cc(F)c(NC(=O)/C=C/CNC5(C)CCOCC5)c(F)c4)cc(c13)CCN2C [Example 116] | 26.6 | 29.9 | – | – |
| COCc1nc2c3c(c(C(F)(F)F)cc2n1C)-c1cccn2c(C(=O)c4cc(F)c(NC(=O)/C=C/CN[C@H]5CCOC5)c(F)c4)cc(c12)CCO3 [Example 118, (S,E)-N-(2,6-difluoro-4-(10-(methoxymethyl)-9-methyl-7-(trifluorometh-yl)-13,14-dihydro-9H-imidazo[4″,5″:5′,6′]benzo-[1′,2′:2,3]oxocino[4,5,6-hi]indolizine-2-carbonyl)-phenyl)-4-((tetrahydro-furan-3-yl)amino)but-2-enamide] | 12.6 | 4.2 | – | – |
| Cc1cc2c(nc(C)n2C)c2c1-c1cccc3c(C(=O)c4cc(F)c(NC(=O)/C=C/CNC56CCC(CC5)OC6)c(F)c4)cn(c13)CCN2C [Example 119, (E)-4-((2-oxabicyclo-[2.2.2]octan-4-yl)amino)-N-(2,6-difluoro-4-(6,8,9,11-tetramethyl-8,11,12,13-tetrahydro-imidazo[4″,5″:5′,6′]benzo-[1′,2′:5,6][1,4]diazocino-[7,8,1-hi]indole-2-carbon-yl)phenyl)but-2-enamide] | – | – | 16.9 | 9.39 |
| Cn1cnc2c3c(c(C(F)(F)F)cc21)-c1cccn2c(C(=O)c4cc(F)c(NC(=O)C=CCNC5CCOC5)c(F)c4)cc(c12)CCO3 [Example 120, (S,E)-N-(2,6-difluoro-4-(9-methyl-7-(trifluoromethyl)-13,14-dihydro-9H-imidazo[4″,5″:5′,6′]benzo[1′,2′:2,3]oxocino[4,5,6-bi]indolizine-2-carbonyl)phenyl)-4-((tetrahydrofuran-3-yl)amino)but-2-enamide] | 5.59 | 6.52 | – | – |
| COc1cc2c(nc(C)n2C)c2c1-c1cccn3c(C(=O)c4cc(F)c(NC(=O)/C=C/CNC56CCC(CC5)OC6)c(F)c4)cc(c13)CCN2C [Example 121] | 23 | 26.4 | – | – |
| Cc1cc2c(nc(C)n2C)c2c1-c1cccc3c(C(=O)c4cc(F)c(NC(=O)/C=C/CN5CCC[C@H]5C(C)(C)O)c(F)c4)cn(c13)CCN2C [Example 122, (S,E)-N-(2,6-difluoro-4-(6,8,9,11-tetramethyl-8,11,12,13-tetrahydro-imidazo[4″,5″:5′,6′]benzo-[1′,2′:5,6][1,4]diazocino-[7,8,1-hi]indole-2-carbon-yl)phenyl)-4-(2-(2-hydroxypropan-2-yl)-pyrrolidin-1-yl)but-2-enamide] | – | 88.2 | 54.1 | – |
| Cc1cc2c(nc(C)n2C)c2c1-c1cccc3c(C(=O)c4cc(F)c(NC(=O)/C=C/CNC5CCOC5(C)C)c(F)c4)cn(c13)CCN2C (stereo not shown) [Example 123, (E)-N-(2,6-difluoro-4-(6,8,9,11-tetramethyl-8,11,12,13-tetrahydro-imidazo[4″,5″:5′,6′]benzo-[1′,2′:5,6][1,4]diazocino-[7,8,1-hi]indole-2-carbon-yl)phenyl)-4-((2,2-dimeth-yltetrahydrofuran-3-yl)-amino)but-2-enamide] | – | 35 | 41.8 | – |
